Data: US20030157062A1, “Method for exterminating termites” (priority 2000, published 2003)

System: Coptotemes formosanus
Experiment: Indoor testing of termiticidal effect of treated soil (Japan Wood Preserving Association standard number 13, 1992)
Type: in vivo
Description: The following tests (test numbers 1 to 16) were carried out based on testing methods and qualitative standards (I) for termiticidal effects of termiticide for soil treating (Japan Wood Preserving Association standard number 13, 1992). In the tests using entomopathogenic nematodes, operation of diffusive volatilization was not carried out.
The bottom portions of these two glass bottles are connected with a glass tube (3) of 15 mm in diameter and 100 mm in length.
In one of the glass bottles of the testing container, about 60 g of a non-treated soil (5) having an adjusted moisture content of about 25% is placed, and in the other glass bottle, about 3 g of Japanese red pine wood blocks are placed, and in the central 50 mm portion of the glass tube, a treated soil for testing (6) is placed.
In the glass bottle containing a non-treated soil, Coptotemes formosanus taken out from a nest was placed, and the upper portions of the glass bottles were covered with aluminum foil. Cumulative mortality rates after 0, 3, 5, 7, 10 and 14 days, respectively, were examined. […]

[1] = 10 ppm of insect-growth regulator singly in treated soil, 0 days elapsed
[2] = 10 ppm of insect-growth regulator singly in treated soil, 3 days elapsed
[3] = 10 ppm of insect-growth regulator singly in treated soil, 5 days elapsed
[4] = 10 ppm of insect-growth regulator singly in treated soil, 7 days elapsed
[5] = 10 ppm of insect-growth regulator singly in treated soil, 10 days elapsed
[6] = 10 ppm of insect-growth regulator singly in treated soil, 14 days elapsed
[7] = 20 ppm of insect-growth regulator singly in treated soil, 0 days elapsed
[8] = 20 ppm of insect-growth regulator singly in treated soil, 3 days elapsed
[9] = 20 ppm of insect-growth regulator singly in treated soil, 5 days elapsed
[10] = 20 ppm of insect-growth regulator singly in treated soil, 7 days elapsed
[11] = 20 ppm of insect-growth regulator singly in treated soil, 10 days elapsed
[12] = 20 ppm of insect-growth regulator singly in treated soil, 14 days elapsed
[13] = 50 ppm of insect-growth regulator singly in treated soil, 0 days elapsed
[14] = 50 ppm of insect-growth regulator singly in treated soil, 3 days elapsed
[15] = 50 ppm of insect-growth regulator singly in treated soil, 5 days elapsed
[16] = 50 ppm of insect-growth regulator singly in treated soil, 7 days elapsed
[17] = 50 ppm of insect-growth regulator singly in treated soil, 10 days elapsed
[18] = 50 ppm of insect-growth regulator singly in treated soil, 14 days elapsed

SMILES | Cumulative mortality rate (%) after a lapse of days [1] | Cumulative mortality rate (%) after a lapse of days [2] | Cumulative mortality rate (%) after a lapse of days [3] | Cumulative mortality rate (%) after a lapse of days [4] | Cumulative mortality rate (%) after a lapse of days [5] | Cumulative mortality rate (%) after a lapse of days [6] | Cumulative mortality rate (%) after a lapse of days [7] | Cumulative mortality rate (%) after a lapse of days [8] | Cumulative mortality rate (%) after a lapse of days [9] | Cumulative mortality rate (%) after a lapse of days [10] | Cumulative mortality rate (%) after a lapse of days [11] | Cumulative mortality rate (%) after a lapse of days [12] | Cumulative mortality rate (%) after a lapse of days [13] | Cumulative mortality rate (%) after a lapse of days [14] | Cumulative mortality rate (%) after a lapse of days [15] | Cumulative mortality rate (%) after a lapse of days [16] | Cumulative mortality rate (%) after a lapse of days [17] | Cumulative mortality rate (%) after a lapse of days [18]
O=C(NC(=O)c1c(F)cccc1F)Nc1cc(Cl)c(F)c(Cl)c1F [Teflubenzuron, N-[[(3,5-dichloro-2,4-difluorophenyl)amino]carbonyl]-2,6-difluorobenzamide] | 0% | 20% | 25% | 30% | 30% | 55% | 0% | 30% | 45% | 50% | 60% | 70% | 0% | 40% | 60% | 70% | 80% | 90%
O=C(NC(=O)c1c(F)cccc1F)Nc1ccc(Cl)cc1 [Diflubenzuron, N-[[(4-chlorophenyl)amino]carbonyl]-2,6-difluorobenzamide] | 0% | 10% | 15% | 20% | 40% | 50% | 0% | 25% | 35% | 40% | 50% | 60% | 0% | 35% | 45% | 50% | 55% | 70%
O=C(NC(=O)c1c(F)cccc1F)Nc1ccc(OC(F)(F)C(F)OC(F)(F)F)c(Cl)c1 (centres unmarked) [novaluron, N-[[[3-chloro-4-(1,1,2-trifluoro-2-trifluoromethoxyethoxy)phenyl]amino]carbonyl]-2,6-difluorobenzamide] | 0% | 20% | 30% | 35% | 40% | 80% | 0% | 30% | 45% | 100% | – | – | 0% | 40% | 60% | 100% | – | –
